In patent US20250313563A1, “GLYCOGEN SYNTHASE KINASE 3 INHIBITORS AND USES THEREOF” (The Broad Institute, Inc., priority 2022, published 2025):

Assays:
[1] = target: GSK3α (GST-full length GSK3α) (Homo sapiens (Human), UniProt P49840); test: GSK3α TR-FRET kinase assay; format: biochemical; settings: 1 nM GSK3α, 4 μM ATP, 30 minute preincubation; geometric mean; read-out: GSK3-A TR-FRET BIOCHEMICAL (TR-FRET); GMean; IC50
Outline: (§1)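 1 nM GST-GSK3α/β + cpd, 30 min preinc; add 200 nM biotin-pS645 GS(631-650) peptide + ATP (α 4 μM / β 2 μM, or 1 mM); 100 min RT, 50 mM Tris pH 7.5, 20 mM MgCl2, 1% DMSO; EDTA stop; SA-d2/Tb-pSer641 Ab 60 min; 665/615 ratio → IC50.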

[2] = target: GSK3b (GST-full length GSK3b) (Homo sapiens (Human), UniProt P49841); test: GSK3b TR-FRET kinase assay; format: biochemical; settings: 1 nM GSK3b, 2 μM ATP, 30 minute preincubation; geometric mean; read-out: GSK3-B TR-FRET BIOCHEMICAL (TR-FRET); GMean; IC50
Chain of GSK3b (GST-full length GSK3b) (P49841 whole entry): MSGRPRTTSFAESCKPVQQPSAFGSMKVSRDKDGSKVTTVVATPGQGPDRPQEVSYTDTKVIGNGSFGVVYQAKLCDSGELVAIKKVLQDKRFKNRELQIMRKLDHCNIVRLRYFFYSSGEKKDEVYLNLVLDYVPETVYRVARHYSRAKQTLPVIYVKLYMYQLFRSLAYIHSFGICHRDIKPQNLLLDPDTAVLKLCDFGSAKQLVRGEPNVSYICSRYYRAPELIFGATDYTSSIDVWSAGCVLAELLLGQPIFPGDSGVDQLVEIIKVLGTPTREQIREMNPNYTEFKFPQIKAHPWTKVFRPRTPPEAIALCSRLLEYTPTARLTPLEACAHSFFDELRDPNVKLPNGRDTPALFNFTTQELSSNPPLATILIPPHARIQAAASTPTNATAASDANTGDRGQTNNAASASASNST
Outline: as §1

Chain of GSK3α (GST-full length GSK3α) (P49840 whole entry): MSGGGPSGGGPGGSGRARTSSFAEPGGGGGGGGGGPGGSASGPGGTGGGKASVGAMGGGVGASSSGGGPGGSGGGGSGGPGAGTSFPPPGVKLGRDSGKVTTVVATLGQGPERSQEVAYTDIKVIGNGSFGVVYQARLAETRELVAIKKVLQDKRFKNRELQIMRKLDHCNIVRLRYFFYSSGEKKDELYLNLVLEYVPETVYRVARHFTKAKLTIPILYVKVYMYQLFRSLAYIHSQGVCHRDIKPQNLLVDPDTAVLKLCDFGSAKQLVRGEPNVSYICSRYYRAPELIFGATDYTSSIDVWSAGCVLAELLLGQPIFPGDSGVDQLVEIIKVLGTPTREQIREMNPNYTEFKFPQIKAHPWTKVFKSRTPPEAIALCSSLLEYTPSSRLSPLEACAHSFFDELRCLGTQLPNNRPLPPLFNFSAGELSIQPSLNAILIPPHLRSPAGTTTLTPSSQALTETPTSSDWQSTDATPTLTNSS

| SMILES | IC50 [1] [µM] | IC50 [2] [µM] |
| --- | --- | --- |
| CC[C@@]1(c2cccc(-c3ccncc3OC3CC3)c2)C2=C(CC(C)(C)NC2=O)Nc2n[nH]cc21 [Compound 948643] | > 5 | > 5 |
| CC[C@@]1(c2cccc(-c3ccnc4cc(Cl)c(C)cc34)c2)C2=C(CC(C)(C)NC2=O)Nc2n[nH]cc21 [Compound 948645] | 0.1 to 1 | > 5 |
| CC[C@@]1(c2cccc(-c3cc(OC)nc4ccccc34)c2)C2=C(CC(C)(C)NC2=O)Nc2n[nH]cc21 [Compound 948647] | > 5 | > 5 |
| CCC1(c2cccc(-c3ccnc4cc(OC)ccc34)c2)C2=C(CC(C)(C)NC2=O)Nc2n[nH]cc21 (stereo not shown) [Compound 948649] | > 5 | > 5 |
| CCC1(c2cccc(-c3ccnc(N4CCOCC4)c3)c2)C2=C(CC(C)(C)NC2=O)Nc2n[nH]cc21 (stereo not shown) [Compound 948653] | ≤ 0.1 | ≤ 0.1 |
| CCC1(c2cccc(-c3ccnc4cc(Cl)c(C)cc34)c2)C2=C(CC(C)(C)NC2=O)Nc2n[nH]cc21 (stereo not shown) [Compound 948654] | > 5 | > 5 |
| CCC1(c2cccc(-c3ccncc3OC3CC3)c2)C2=C(CC(C)(C)NC2=O)Nc2n[nH]cc21 (stereo not shown) [Compound 948656] | > 5 | > 5 |
| CC[C@@]1(c2cccc(-c3ccnc4ccc(C)cc34)c2)C2=C(CC(C)(C)NC2=O)Nc2n[nH]cc21 [Compound 948658] | > 5 | > 5 |
| CCC1(c2cccc(-c3cc(C)ncc3F)c2)C2=C(CC(C)(C)NC2=O)Nc2n[nH]c(C)c21 (stereo not shown) [Compound 948761] | ≤ 0.1 | ≤ 0.1 |
| CCC1(c2cccc(OC)c2)C2=C(CC(C)(C)NC2=O)Nc2n[nH]c(C)c21 (stereo not shown) [Compound 948763] | ≤ 0.1 | 0.1 to 1 |
| CCC1(c2cccc(Oc3ncccn3)c2)C2=C(CC(C)(C)NC2=O)Nc2n[nH]cc21 (stereo not shown) [Compound 948764] | ≤ 0.1 | 0.1 to 1 |
| CCC1(c2cccc(-c3cn(C)nc3C)c2)C2=C(CC(C)(C)NC2=O)Nc2n[nH]c(Cl)c21 (stereo not shown) [Compound 948768] | ≤ 0.1 | ≤ 0.1 |
| CC[C@]1(c2cccc(-c3ccnc4c3CCC4)c2)C2=C(CC(C)(C)NC2=O)Nc2n[nH]c(C(F)(F)F)c21 [Compound 948769] | 0.1 to 1 | 0.1 to 1 |
| CC[C@]1(c2cccc(-c3ccncc3F)c2)C2=C(CC(C)(C)NC2=O)Nc2[nH]nc(C(F)(F)F)c21 [Compound 948770] | 0.1 to 1 | 0.1 to 1 |

Second part, the compound after the results:

| IC50 [1] [µM] | IC50 [2] [µM] | SMILES |
| --- | --- | --- |
| > 5 | > 5 | CCC1(c2cccc(-c3ccncc3C)c2)C2=C(CC3(CCOC3)NC2=O)Nc2n[nH]cc21 (stereo not shown) [Compound 948648] |
| > 5 | > 5 | CC[C@@]1(c2cccc(-c3ccnc4c(Cl)cccc34)c2)C2=C(CC(C)(C)NC2=O)Nc2n[nH]cc21 [Compound 948650] |
| > 5 | > 5 | CCC1(c2cccc(-c3ccnc4ccc(C)cc34)c2)C2=C(CC(C)(C)NC2=O)Nc2n[nH]cc21 (stereo not shown) [Compound 948651] |
| > 5 | > 5 | CCc1cnccc1-c1cccc(C2(CC)C3=C(CC(C)(C)NC3=O)Nc3n[nH]cc32)c1 (stereo not shown) [Compound 948657] |
| > 5 | > 5 | CCC1(c2cccc(-c3ccnc4c(Cl)cccc34)c2)C2=C(CC(C)(C)NC2=O)Nc2n[nH]cc21 (stereo not shown) [Compound 948659] |
| ≤ 0.1 | 0.1 to 1 | CCC1(c2cccc(-c3ccnc4cc(OC)ccc34)c2)C2=C(CC(C)(C)NC2=O)Nc2n[nH]cc21 (stereo not shown) [Compound 948661] |
| > 5 | > 5 | CCC1(c2cccc(-c3ccnc(N4CCCCC4)c3)c2)C2=C(CC(C)(C)NC2=O)Nc2n[nH]cc21 (stereo not shown) [Compound 948663] |
| ≤ 0.1 | ≤ 0.1 | CCC1(c2cccc(-c3cc(C)nnc3C)c2)C2=C(CC(C)(C)NC2=O)Nc2n[nH]c(C)c21 (stereo not shown) [Compound 948765] |
| ≤ 0.1 | ≤ 0.1 | CCC1(c2cccc(-c3cnn(C)c3)c2)C2=C(CC(C)(C)NC2=O)Nc2n[nH]c(Cl)c21 (stereo not shown) [Compound 948767] |
